# Data: ChEMBL document CHEMBL4304777 (Eur J Med Chem, 2019)
# Assays:
# [1] = tested on: HCT-116; assay: Cytotoxicity against human HCT116 cells assessed as reduction in cell viability incubated for 72 hrs by SRB assay; format: functional, cell-based; conditions: HCT-116, 72 h
# [2] = biological target: RAC-alpha serine/threonine-protein kinase (Homo sapiens, UniProt P31749); assay: Inhibition of Akt1 (unknown origin) expressed in Escherichia coli using peptide as substrate incubated for 1 hr by HTRF assay
# Chain of RAC-alpha serine/threonine-protein kinase (P31749 whole entry): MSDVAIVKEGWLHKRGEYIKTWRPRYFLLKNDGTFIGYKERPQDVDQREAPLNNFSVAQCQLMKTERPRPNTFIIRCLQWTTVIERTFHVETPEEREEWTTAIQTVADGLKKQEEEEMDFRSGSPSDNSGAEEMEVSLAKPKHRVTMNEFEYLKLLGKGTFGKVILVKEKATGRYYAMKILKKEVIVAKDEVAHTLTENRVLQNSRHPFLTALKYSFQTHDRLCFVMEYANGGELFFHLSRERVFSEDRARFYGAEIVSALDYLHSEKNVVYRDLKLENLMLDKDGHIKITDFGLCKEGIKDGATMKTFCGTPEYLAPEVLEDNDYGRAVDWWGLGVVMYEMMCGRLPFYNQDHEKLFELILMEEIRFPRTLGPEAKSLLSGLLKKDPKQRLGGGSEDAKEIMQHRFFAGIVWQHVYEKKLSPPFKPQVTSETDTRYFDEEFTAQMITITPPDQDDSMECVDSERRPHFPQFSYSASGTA
# [3] = tested on: OVCAR-8; assay: Cytotoxicity against human OVCAR8 cells assessed as reduction in cell viability incubated for 72 hrs by SRB assay; format: functional, cell-based; conditions: OVCAR-8, 72 h
# [4] = tested on: MOLT-4; assay: Antiproliferative activity against human MOLT4 cells assessed as reduction in cell viability; format: functional, cell-based
# [5] = tested on: MM1.S; assay: Antiproliferative activity against human MM1S cells assessed as reduction in cell viability; format: functional, cell-based
# [6] = tested on: HuT78; assay: Antiproliferative activity against human HUT78 cells assessed as reduction in cell viability; format: functional, cell-based
# [7] = Antiproliferative activity against human CEM/C1 cells assessed as reduction in cell viability; format: functional, cell-based
# [8] = tested on: JVM-2; assay: Antiproliferative activity against human JVM2 cells assessed as reduction in cell viability; format: functional, cell-based
# [9] = tested on: U-937; assay: Antiproliferative activity against human U937 cells assessed as reduction in cell viability; format: functional, cell-based
# [10] = tested on: RPMI-8226; assay: Antiproliferative activity against human RPMI8226 cells assessed as reduction in cell viability; format: functional, cell-based
# [11] = tested on: MM1.S; assay: Antitumor activity against human MM1S cells xenografted in BALB/c mouse assessed as tumor growth inhibition at 30 mg/kg, po administered for 14 days; format: functional; conditions: 336 h, read-out: TGI
# [12] = tested on: K562; assay: Antiproliferative activity against human K562 cells assessed as reduction in cell viability; format: functional, cell-based
# [13] = tested on: MV4-11; assay: Antiproliferative activity against human MV4-11 cells assessed as reduction in cell viability; format: functional, cell-based
# [14] = AUC (0 to infinity) in Sprague-Dawley rat at 2 mg/kg, iv measured up 48 hrs by LC-MS/MS analysis; format: ADME, organism-based; design: dose 2 mg/kg, time infinity, route intravenous; conditions: in vivo
# [15] = biological target: hERG (KCNH2) (Homo sapiens, UniProt Q12809); assay: Inhibition of human ERG expressed in HEK293 cells at 3 uM at - 40 mV holding potential by whole cell patch clamp assay relative to control; format: cell-based; conditions: HEK293 cells expressing human ERG
# Chain of hERG (KCNH2) (Q12809 whole entry): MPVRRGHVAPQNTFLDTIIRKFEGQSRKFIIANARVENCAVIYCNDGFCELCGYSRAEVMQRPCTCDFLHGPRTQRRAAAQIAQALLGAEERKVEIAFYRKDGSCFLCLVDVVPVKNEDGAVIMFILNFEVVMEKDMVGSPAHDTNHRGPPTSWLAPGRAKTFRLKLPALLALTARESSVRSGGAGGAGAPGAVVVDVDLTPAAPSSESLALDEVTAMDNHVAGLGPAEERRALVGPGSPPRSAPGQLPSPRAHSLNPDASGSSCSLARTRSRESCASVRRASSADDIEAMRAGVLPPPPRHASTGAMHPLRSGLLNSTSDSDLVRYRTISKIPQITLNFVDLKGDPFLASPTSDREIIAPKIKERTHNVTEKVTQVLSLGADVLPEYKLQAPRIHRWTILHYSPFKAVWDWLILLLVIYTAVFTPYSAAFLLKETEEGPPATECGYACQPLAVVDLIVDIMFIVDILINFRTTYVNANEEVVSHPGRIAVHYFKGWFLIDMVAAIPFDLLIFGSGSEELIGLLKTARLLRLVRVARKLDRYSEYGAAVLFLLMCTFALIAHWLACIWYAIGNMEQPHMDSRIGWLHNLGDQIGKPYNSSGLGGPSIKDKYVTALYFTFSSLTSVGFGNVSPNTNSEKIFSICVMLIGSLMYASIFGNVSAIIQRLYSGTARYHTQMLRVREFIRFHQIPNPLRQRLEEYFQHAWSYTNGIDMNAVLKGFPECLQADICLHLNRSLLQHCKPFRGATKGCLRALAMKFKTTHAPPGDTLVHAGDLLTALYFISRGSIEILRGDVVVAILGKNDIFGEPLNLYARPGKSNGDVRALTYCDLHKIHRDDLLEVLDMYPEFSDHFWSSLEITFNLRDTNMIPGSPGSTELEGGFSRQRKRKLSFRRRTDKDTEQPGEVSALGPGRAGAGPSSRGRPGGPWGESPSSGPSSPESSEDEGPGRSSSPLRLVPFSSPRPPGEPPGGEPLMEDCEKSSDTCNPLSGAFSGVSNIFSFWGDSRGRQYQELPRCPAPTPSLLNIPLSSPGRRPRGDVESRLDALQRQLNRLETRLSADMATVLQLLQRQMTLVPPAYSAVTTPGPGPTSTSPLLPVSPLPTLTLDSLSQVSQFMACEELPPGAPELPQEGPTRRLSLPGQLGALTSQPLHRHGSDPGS
# [16] = Half life in Sprague-Dawley rat at 10 mg/kg, po measured up 48 hrs by LC-MS/MS analysis; format: ADME, organism-based; conditions: in vivo
# [17] = Stability in rat plasma assessed as remaining compound at 100 ug/ml incubated for 1.5 hrs by LC-MS analysis; format: ADME, cell-free; conditions: read-out: Stability
# [18] = tested on: CCRF-CEM; assay: Antiproliferative activity against human CCRF-CEM cells assessed as reduction in cell viability; format: functional, cell-based
# [19] = AUC (0 to infinity) in Sprague-Dawley rat at 10 mg/kg, po measured up 48 hrs by LC-MS/MS analysis; format: ADME, organism-based; design: dose 10 mg/kg, time infinity, route oral; conditions: in vivo
# [20] = Stability in dog liver microsomes assessed as remaining compound at 100 ug/ml incubated for 1.5 hrs by LC-MS analysis; format: ADME, Canis lupus familiaris, Microsome; conditions: read-out: Stability
# [21] = AUC (0 to t) in Sprague-Dawley rat at 2 mg/kg, iv measured up 48 hrs by LC-MS/MS analysis; format: ADME, organism-based; conditions: in vivo
# [22] = AUC (0 to t) in Sprague-Dawley rat at 10 mg/kg, po measured up 48 hrs by LC-MS/MS analysis; format: ADME, organism-based; conditions: in vivo
# [23] = Stability in rat liver microsomes assessed as remaining compound at 100 ug/ml incubated for 1.5 hrs by LC-MS analysis; format: ADME, Microsome; conditions: read-out: Stability
# [24] = Toxicity in BALB/c mouse xenografted with human MM1S cells assessed as body weight loss at 15 to 30 mg/kg, po administered once daily for 14 days; format: organism-based; conditions: in vivo, 336 h
# [25] = Tmax in Sprague-Dawley rat at 2 mg/kg, iv measured up 48 hrs by LC-MS/MS analysis; format: ADME, organism-based; conditions: in vivo
# [26] = tested on: MM1.S; assay: Antitumor activity against human MM1S cells xenografted in BALB/c mouse assessed as tumor growth inhibition at 15 mg/kg, po administered for 14 days; format: functional; conditions: 336 h, read-out: TGI
# [27] = tested on: HCT-116; assay: Induction of apoptosis in human HCT116 cells assessed as apoptotic cells at 2 uM incubated for 72 hrs by annexin V - FITC and propidium iodide staining based flow cytometry (reference value: 6.99 %); format: functional
# [28] = Tmax in Sprague-Dawley rat at 10 mg/kg, po measured up 48 hrs by LC-MS/MS analysis; format: ADME, organism-based; conditions: in vivo
# [29] = Oral bioavailability in Sprague-Dawley rat at 10 mg/kg, measured up 48 hrs by LC-MS/MS analysis; format: ADME, organism-based; conditions: in vivo
# [30] = Antiproliferative activity against human Mino cells assessed as reduction in cell viability; format: functional, cell-based
# [31] = Cmax in Sprague-Dawley rat at 10 mg/kg, po measured up 48 hrs by LC-MS/MS analysis; format: ADME, organism-based; design: dose 10 mg/kg, route oral; conditions: in vivo
# [32] = Stability in human liver microsomes assessed as remaining compound at 100 ug/ml incubated for 1.5 hrs by LC-MS analysis; format: ADME, Microsome; conditions: read-out: Stability
# [33] = Stability in mouse liver microsomes assessed as remaining compound at 100 ug/ml incubated for 1.5 hrs by LC-MS analysis; format: ADME, Microsome; conditions: read-out: Stability
# [34] = tested on: HCT-116; assay: Induction of apoptosis in human HCT116 cells assessed as apoptotic cells at 0.4 uM incubated for 72 hrs by annexin V - FITC and propidium iodide staining based flow cytometry (reference value: 6.99 %); format: functional
# [35] = Stability in human plasma assessed as remaining compound at 100 ug/ml incubated for 1.5 hrs by LC-MS analysis; format: ADME, cell-free; conditions: read-out: Stability
# [36] = tested on: HCT-116; assay: Induction of apoptosis in human HCT116 cells assessed as apoptotic cells at 10 uM incubated for 72 hrs by annexin V - FITC and propidium iodide staining based flow cytometry (reference value: 6.99 %); format: functional
# [37] = Half life in Sprague-Dawley rat at 2 mg/kg, iv measured up 48 hrs by LC-MS/MS analysis; format: ADME, organism-based; conditions: in vivo
# [38] = Cmax in Sprague-Dawley rat at 2 mg/kg, iv measured up 48 hrs by LC-MS/MS analysis; format: ADME, organism-based; design: dose 2 mg/kg, route intravenous; conditions: in vivo
compound,measurement,setting,value
Cn1ncc(C(=O)O)c1-c1ccc(C(=O)N[C@@H]2CNCC[C@H]2c2cccc(F)c2)s1,IC50,[1],> 50000 nM
same,IC50,[2],101 nM
same,IC50,[3],> 50000 nM
Cn1ncc(Cl)c1-c1csc(C(=O)N[C@@H]2CNCC[C@H]2c2ccc(Cl)c(C(F)(F)F)c2)c1,IC50,[1],1850 nM
same,IC50,[2],35.3 nM
same,IC50,[3],580 nM
Cn1ncc(Br)c1-c1ccc(C(=O)N[C@@H]2CNCC[C@H]2c2cccc(F)c2)s1,IC50,[1],890 nM
same,IC50,[2],5.46 nM
Cn1ncc(-c2ccncc2)c1-c1ccc(C(=O)N[C@@H]2CNCC[C@H]2c2cccc(F)c2)s1,IC50,[1],24000 nM
same,IC50,[2],99.9 nM
same,IC50,[3],28000 nM
CCc1cnn(C)c1-c1ccc(C(=O)N[C@@H]2CNCC[C@H]2c2cccc(F)c2)s1,IC50,[1],2830 nM
same,IC50,[2],48.9 nM
same,IC50,[3],2700 nM
Cn1ncc(Cl)c1-c1cc(C(=O)N[C@H](CN)Cc2ccc(F)c(F)c2)oc1Cl [UPROSERTIB],IC50,[4],66 nM
same,IC50,[5],32 nM
same,IC50,[6],378 nM
same,IC50,[7],30 nM
same,IC50,[8],293 nM
same,IC50,[9],101 nM
same,IC50,[10],538 nM
same,IC50,[1],1750 nM
same,inhibition in vivo at 30 mg/kg,[11],36.8%
same,IC50,[12],> 3000 nM
same,IC50,[3],540 nM
same,IC50,[13],635 nM
Cc1cnn(C)c1-c1ccc(C(=O)N[C@@H]2CNCC[C@H]2c2cccc(F)c2)s1,IC50,[1],1780 nM
same,IC50,[2],9 nM
same,IC50,[3],1740 nM
Cn1ncc(Cl)c1-c1csc(C(=O)N[C@@H]2CNCC[C@H]2c2ccc(Cl)cc2)c1,IC50,[1],1210 nM
same,IC50,[2],13.7 nM
same,IC50,[3],5690 nM
Cl.Cn1ncc(Cl)c1-c1csc(C(=O)N[C@@H]2CNCC[C@H]2c2cccc(F)c2)c1,IC50,[4],14 nM
same,AUC(0-inf),[14],1510 ng·h/mL
same,inhibition at 3 µM,[15],40%
same,half-life,[16],4.74 h
same,"remaining at 1.5 h, 100 ug/ml",[17],> 99%
same,IC50,[18],8 nM
same,AUC(0-inf),[19],3940 ng·h/mL
same,"remaining at 1.5 h, 100 ug/ml",[20],81.3%
same,IC50,[5],2 nM
same,AUC(0-t) at 48 h,[21],1480 ng·h/mL
same,AUC(0-t) at 48 h,[22],3890 ng·h/mL
same,"remaining at 1.5 h, 100 ug/ml",[23],63.7%
same,IC50,[7],7 nM
same,Activity,[24],Toxic
same,Tmax,[25],4.98 min
same,inhibition in vivo at 15 mg/kg,[26],40.7%
same,IC50,[9],188 nM
same,Activity,[27],8.69%
same,Tmax,[28],2.75 h
same,bioavailability,[29],52%
same,IC50,[30],531 nM
same,Cmax,[31],423 ng/mL
same,"remaining at 1.5 h, 100 ug/ml",[32],88.3%
same,"remaining at 1.5 h, 100 ug/ml",[33],82.7%
same,IC50,[10],49 nM
same,Activity,[34],7.73%
same,IC50,[1],950 nM
same,"remaining at 1.5 h, 100 ug/ml",[35],> 99%
same,inhibition in vivo at 30 mg/kg,[11],42.1%
same,IC50,[2],1.26 nM
same,IC50,[12],> 3000 nM
same,Activity,[36],24.58%
same,half-life,[37],3.52 h
same,IC50,[13],441 nM
same,Cmax,[38],1440 ng/mL
Cn1nccc1-c1ccc(C(=O)N[C@@H]2CNCC[C@H]2c2cccc(F)c2)s1,IC50,[1],1370 nM
same,IC50,[2],10.6 nM
same,IC50,[3],1590 nM
Cn1nccc1-c1ccc(C(=O)N[C@@H]2CNCC[C@H]2c2ccc(Cl)cc2)s1,IC50,[1],8870 nM
same,IC50,[2],10.2 nM
same,IC50,[3],1390 nM
Cn1ncc(-c2ccccc2)c1-c1ccc(C(=O)N[C@@H]2CNCC[C@H]2c2cccc(F)c2)s1,IC50,[1],4420 nM
same,IC50,[2],70.4 nM
same,IC50,[3],2510 nM
Cn1ncc(Cl)c1-c1ccc(C(=O)N[C@@H]2CNCC[C@H]2c2ccc(Cl)c(C(F)(F)F)c2)s1,IC50,[1],1410 nM
same,IC50,[2],65.2 nM
same,IC50,[3],640 nM
Cl.Cn1ncc(Cl)c1-c1ccc(C(=O)N[C@@H]2CNCC[C@H]2c2cccc(F)c2)s1,IC50,[4],50 nM
same,IC50,[5],21 nM
same,IC50,[6],298 nM
same,IC50,[7],28 nM
same,IC50,[8],208 nM
same,IC50,[9],78 nM
same,Activity,[27],22.68%
same,IC50,[10],263 nM
same,Activity,[34],11.66%
same,IC50,[1],440 nM
same,IC50,[12],> 3000 nM
same,Activity,[36],89.62%
same,IC50,[3],230 nM
same,IC50,[13],135 nM
C=Cc1cnn(C)c1-c1ccc(C(=O)N[C@@H]2CNCC[C@H]2c2cccc(F)c2)s1,IC50,[1],6850 nM
same,IC50,[2],46.9 nM
same,IC50,[3],3190 nM
Cn1ncc(CO)c1-c1ccc(C(=O)N[C@@H]2CNCC[C@H]2c2cccc(F)c2)s1,IC50,[1],7420 nM
same,IC50,[2],62.2 nM
same,IC50,[3],7170 nM
Cn1ncc(Cl)c1-c1ccc(C(=O)N[C@@H]2CNCC[C@H]2c2ccc(Cl)cc2)s1,IC50,[1],3020 nM
same,IC50,[2],1.8 nM
same,IC50,[3],1470 nM
